Reference: US8378059B2, “Supramolecular handcuffs in polymeric architecture” (Cambridge Enterprise Ltd., priority 2007, dated 2013)

Key:
[1] = solubility of hydrophobic guest in water, observed by 1H NMR; format: physicochemical
[2] = aqueous environment; cited from earlier work
[3] = Hwang et al. J. Am. Chem. Soc. 2007; cited from earlier work

For `CCCCCCCCCCCCCCCCCC[n+]1ccc(-c2cc[n+](C)cc2)cc1` [Viologen 3, Octadecyl methyl viologen], the “change in solubility in water” value ([1]; addition of CB[8] to a solution of Np-PEG5k and 3) was “increase in solubility” and the water solubility ([1]; guest alone) was “only sparingly water-soluble”.
For Cucurbit[8]uril, the “association constants (Ka), simultaneous binding of two organic guest molecules” value [2] is listed as “≈ 10^11 M^−2”.
In the case of cucurbit[7]uril [CB[7]], the “Ka, 1:1 complex with ferrocene derivatives” value [3] is given as “≈ 10^12 M^−1”.
